Assay results taken from US20240400584A1, “COMPOUNDS AND METHODS FOR MODULATING SPLICING” (REMIX THERAPEUTICS INC., priority 2021, published 2024).
pIC50: −log10 of the molar value.

Tests used:
[1] = test system: HTT; assay: RT-qPCR splicing assay, HTT AJ/CJ mRNA; assay type: cell-based, human; conditions: Homo sapiens, A673 or K562 cells; for pIC50: decrease in canonical junction mRNA; for AC50: increase in alternative junction mRNA
In short: (§1)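 Cells: A673 (DMEM/10% FBS) or K562 (IMDM/10% FBS). Dosing: 11-pt 3-fold, top 10 uM final, DMSO ≤0.25%, 24 h, 37° C. Readout: one-step RT-qPCR on lysate, CJ vs AJ isoforms; ΔCt vs housekeeper, ΔΔCt vs DMSO, 2^(−ΔΔCt) RQ → % response.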

[2] = test system: MYB; assay: RT-qPCR splicing assay, MYB AJ/CJ mRNA; assay type: cell-based; conditions: Homo sapiens, A673 or K562 cells, 24 hours; for pIC50: decrease in canonical junction mRNA; for AC50: increase in alternative junction mRNA
In short: as §1

[3] = test system: HTT; assay: Gene panel canonical junction qPCR assay, HTT CJ mRNA (Table 7); assay type: cell-based, human; conditions: Homo sapiens, read-out: HTT CJ mRNA decrease IC50
In short: (§2)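 Canonical-junction transcript decrease reported as IC50 from a 4-parameter logistic fit of percentage response, derived from 2^(−ΔΔCt) versus housekeeper (GAPDH/GUSB/PPIA) and DMSO control using preset ΔCt windows. Readout by cDNA synthesis and qPCR with exon-junction-overlapping probesets in compound-treated K562 or A673 cells.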

[4] = test system: SMN2; assay: Gene panel canonical junction qPCR assay, SMN2 CJ mRNA (Table 7); assay type: cell-based; conditions: Homo sapiens, read-out: SMN2 CJ mRNA decrease IC50
In short: as §2

[5] = test system: MYB; assay: Gene panel canonical junction qPCR assay, MYB CJ mRNA (Table 7); assay type: cell-based; conditions: Homo sapiens, read-out: MYB CJ mRNA decrease IC50
In short: as §2

[6] = test system: Target C; assay: Gene panel canonical junction qPCR assay, Target C CJ mRNA (Table 7); assay type: cell-based, human; conditions: Homo sapiens, read-out: Target C CJ mRNA decrease IC50
In short: as §2

| Structure (SMILES) | pIC50 ([1]; 24 hours) | AC50 ([1]; 24 hours) [nM] | pIC50 [2] | AC50 [2] [nM] | pIC50 [3] | pIC50 [4] | pIC50 [5] | pIC50 [6] | pIC50 ([1]; 24 h) | AC50 ([1]; 24 h) [nM] |
| --- | --- | --- | --- | --- | --- | --- | --- | --- | --- | --- |
| O=c1cc(-c2ccc3c(c2)COc2nc(OC4CC5CC(F)(F)C(C4)N5)ccc2-3)cc[nH]1 (stereo not shown) [Compound 229] | < 5.00 | > 10000 | < 5.00 | > 10000 | < 5.00 | < 5.00 | < 5.00 | < 5.00 |  |  |
| Fc1ccn(-c2ccc3c(c2)COc2nc(O[C@@H]4C[C@H]5CC[C@@H](C4)N5)ccc2-3)n1 [Compound 230, (1R,3R,5S)-3-{[8-(3-fluoropyrazol-1-yl)-6H-isochromeno[3,4-b]pyridin-3-yl]oxy}-8-azabicyclo[3.2.1]octane] |  |  | 6.00 to 7.00 | 1000 to 10000 | 6.00 to 7.00 | 6.00 to 7.00 | 6.00 to 7.00 | 5.00 to 6.00 | 6.00 to 7.00 | 100 to 1000 |
| COc1cc(-c2ccc3c(c2)COc2nc(N(C)C4CC(C)(C)NC(C)(C)C4)ccc2-3)cnn1 [Compound 231, N-[8-(6-methoxypyridazin-4-yl)-6H-isochromeno[3,4-b]pyridin-3-yl]-N,2,2,6,6-pentamethylpiperidin-4-amine] |  |  | 6.00 to 7.00 | 1000 to 10000 | 6.00 to 7.00 | > 7.00 | 6.00 to 7.00 | 6.00 to 7.00 | 6.00 to 7.00 | 100 to 1000 |
| COc1cc(-c2ccc3c(c2)COc2nc(N(C)[C@@H]4C[C@H]5COC[C@@H](C4)N5)ccc2-3)cnn1 [Compound 232, (1R,5S,7r)-N-[8-(6-methoxypyridazin-4-yl)-6H-isochromeno[3,4-b]pyridin-3-yl]-N-methyl-3-oxa-9-azabicyclo[3.3.1]nonan-7-amine] |  |  | 6.00 to 7.00 | < 100 | > 7.00 | > 7.00 | 6.00 to 7.00 | > 7.00 | > 7.00 | < 100 |
| CN(c1ccc2c(n1)OCc1cc(-c3cn[nH]c3)c(F)cc1-2)C1CC(C)(C)NC(C)(C)C1 [Compound 233, 9-fluoro-N-methyl-8-(1H-pyrazol-4-yl)-N-(2,2,6,6-tetramethylpiperidin-4-yl)-6H-isochromeno[3,4-b]pyridin-3-amine] |  |  | 6.00 to 7.00 | 1000 to 10000 | > 7.00 | > 7.00 | 6.00 to 7.00 | 6.00 to 7.00 | > 7.00 | 100 to 1000 |
| CC1(C)CC(Oc2ccc3c(n2)OCc2cc(-c4cn[nH]c4)c(F)cc2-3)CC(C)(C)N1 [Compound 234] |  |  | 6.00 to 7.00 | 100 to 1000 | > 7.00 | > 7.00 | 6.00 to 7.00 | 6.00 to 7.00 | > 7.00 | < 100 |
| FC1(F)CC2CC(Oc3ccc4c(n3)OCc3cc(-n5nccn5)ccc3-4)CC1N2 (stereo not shown) [Compound 235, 6,6-difluoro-3-{[8-(1,2,3-triazol-2-yl)-6H-isochromeno[3,4-b]pyridin-3-yl]oxy}-8-azabicyclo[3.2.1]octane] |  |  | < 5.00 | > 10000 | < 5.00 | < 5.00 | < 5.00 | 5.00 to 6.00 | < 5.00 | > 10000 |
| Fc1cc2c(cc1-c1cn[nH]c1)COc1nc(O[C@@H]3C[C@H]4CC(F)(F)[C@@H](C3)N4)ccc1-2 [Compound 236] |  |  | 6.00 to 7.00 | < 100 | > 7.00 | > 7.00 | 6.00 to 7.00 | 6.00 to 7.00 | > 7.00 | < 100 |
| FC1(F)CC2CC(Nc3ccc4c(n3)OCc3cc(-n5nccn5)ccc3-4)CC1N2 (stereo not shown) [Compound 238, 6,6-difluoro-N-[8-(1,2,3-triazol-2-yl)-6H-isochromeno[3,4-b]pyridin-3-yl]-8-azabicyclo[3.2.1]octan-3-amine] |  |  | 5.00 to 6.00 | 1000 to 10000 | 6.00 to 7.00 | 5.00 to 6.00 | 5.00 to 6.00 | 5.00 to 6.00 | 6.00 to 7.00 | 1000 to 10000 |
| CN(c1ccc2c(n1)OCc1cc(-n3nccn3)ccc1-2)C1CC2CC(F)(F)C(C1)N2 (stereo not shown) [Compound 239, 6,6-difluoro-N-methyl-N-[8-(1,2,3-triazol-2-yl)-6H-isochromeno[3,4-b]pyridin-3-yl]-8-azabicyclo[3.2.1]octan-3-amine] |  |  | 5.00 to 6.00 | 1000 to 10000 | 6.00 to 7.00 | 6.00 to 7.00 | 5.00 to 6.00 | 5.00 to 6.00 | 6.00 to 7.00 | 1000 to 10000 |
| COc1cc(-c2ccc3c(c2)COc2nc(NC4CC5CC(F)(F)C(C4)N5)ccc2-3)cnn1 (stereo not shown) [Compound 240, 6,6-difluoro-N-[8-(6-methoxypyridazin-4-yl)-6H-isochromeno[3,4-b]pyridin-3-yl]-8-azabicyclo[3.2.1]octan-3-amine] |  |  | 5.00 to 6.00 | 1000 to 10000 | > 7.00 | 6.00 to 7.00 | 5.00 to 6.00 | 6.00 to 7.00 | > 7.00 | 100 to 1000 |
| FC1(F)CC2CC(Nc3ccc4c(n3)OCc3cc(-c5cn[nH]c5)ccc3-4)CC1N2 (stereo not shown) [Compound 241, 6,6-difluoro-N-[8-(1H-pyrazol-4-yl)-6H-isochromeno[3,4-b]pyridin-3-yl]-8-azabicyclo[3.2.1]octan-3-amine] |  |  | 5.00 to 6.00 | 1000 to 10000 | 5.00 to 6.00 | 5.00 to 6.00 | 5.00 to 6.00 | 5.00 to 6.00 | 5.00 to 6.00 | 1000 to 10000 |
| COc1cc(-c2cc3c(cc2F)-c2ccc(N(C)[C@@H]4C[C@H]5CC[C@@H](C4)N5)nc2OC3)cnn1 [Compound 242] |  |  | 5.00 to 6.00 | < 100 | > 7.00 | > 7.00 | 6.00 to 7.00 | > 7.00 | > 7.00 | < 100 |
| COc1cc(-c2cc3c(cc2F)-c2ccc(O[C@@H]4C[C@H]5CC[C@@H](C4)N5)nc2OC3)cnn1 [Compound 243] |  |  | 6.00 to 7.00 | 100 to 1000 | > 7.00 | > 7.00 | 6.00 to 7.00 | 6.00 to 7.00 | > 7.00 | < 100 |
| COc1cc(-c2cc3c(cc2F)-c2ccc(OC4CC(C)(C)NC(C)(C)C4)nc2OC3)cnn1 [Compound 244] |  |  | 6.00 to 7.00 | 100 to 1000 | 6.00 to 7.00 | 6.00 to 7.00 | 6.00 to 7.00 | 6.00 to 7.00 | 6.00 to 7.00 | < 100 |
| COc1cc(-c2ccc3c(c2F)COc2nc(N(C)[C@@H]4C[C@H]5CC[C@@H](C4)N5)ccc2-3)cnn1 [Compound 245, N-((1R,3s,5S)-8-azabicyclo[3.2.1]octan-3-yl)-7-fluoro-8-(6-methoxypyridazin-4-yl)-N-methyl-6H-isoch-romeno[3,4-b]pyridin-3-amine] |  |  | > 7.00 | < 100 | > 7.00 | > 7.00 | > 7.00 | > 7.00 | > 7.00 | < 100 |
| COc1cc(-c2ccc3c(c2)COc2nc(N(C)[C@H]4C[C@H]5COC[C@@H](C4)N5)ccc2-3)cnn1 [Compound 246] |  |  | < 5.00 | 1000 to 10000 | < 5.00 | 5.00 to 6.00 | < 5.00 | < 5.00 | < 5.00 | > 10000 |
